Laboratory results: patent US8975398B2, “NAMPT inhibitors” (AbbVie Inc., priority 2012, dated 2015)

These compounds were tested on PC3 cells (assay: NAMPT Cell Proliferation Assay (Cell Titer Glo; also performed in the presence of 0.3 mM nicotinamide mononucleotide)). Conditions: Homo sapiens, PC-3, 120 h, 5 days incubation, cell viability by Cell Titer Glo.
Format: cell-based
Procedure: NAMPT Cell Proliferation Assay
PC3 cells were seeded in 96-well black plates (Corning #3904) at 500 cells/well in 90 μl of RPMI media containing 10% heat-inactivated FBS and incubated overnight at 37° C. and 5% CO2 to allow cells to attach to wells. The following day, test compounds were serially diluted in neat DMSO to 1000× final concentrations prior to dilution with RPMI media to 10× and 1% DMSO. Ten μL of the 10× compounds were then transferred to wells containing cells to produce a dose response of 10-fold dilutions from 10 μM to 1×10^−5 μM. Cells were incubated for 5 days at 37° C. and 5% CO2, then cell viability was measured using Cell Titer Glo reagent (Promega #G7571). Percent inhibition values were calculated and fitted to a sigmoidal dose response curves using Assay Explorer software to determine IC50s.

Row | SMILES | IC50 [nM]
1 | CC(C)C(=O)N1CCC(Cc2ccc(NC(=O)C3CN(c4cccnn4)C3)cc2)CC1 [Example 901, N-(4-{[1-(2-methylpropanoyl)piperidin-4-yl]methyl}phenyl)-1-(pyridazin-3-yl)azetidine-3-carboxamide] | 2.07
2 | CC1(C(=O)N2CCC(Cc3ccc(NC(=O)C4CN(c5cccnn5)C4)cc3)CC2)CC1 [Example 904, N-[4-({1-[(1-methylcyclopropyl)carbonyl]piperidin-4-yl}methyl)phenyl]-1-(pyridazin-3-yl)azetidine-3-carboxamide] | 1.95
3 | Cc1ccc(N2CC(C(=O)Nc3ccc(-c4cnn(CC5(C)CCN(C6COC6)CC5)c4)cc3)C2)nn1 [Example 905, N-[4-(1-{[4-methyl-1-(oxetan-3-yl)piperidin-4-yl]methyl}-1H-pyrazol-4-yl)phenyl]-1-(6-methylpyridazin-3-yl)azetidine-3-carboxamide] | 13.3
4 | Cc1nnccc1N1CC(C(=O)Nc2ccc(C3CCN(C(=O)c4ccccc4)CC3)cc2)C1 [Example 908, N-[4-(1-benzoylpiperidin-4-yl)phenyl]-1-(3-methylpyridazin-4-yl)azetidine-3-carboxamide] | 92.5
5 | Cc1nnccc1N1CC(C(=O)Nc2ccc(C3CCN(C(=O)c4ccccc4F)CC3)cc2)C1 [Example 909, N-{4-[1-(2-fluorobenzoyl)piperidin-4-yl]phenyl}-1-(3-methylpyridazin-4-yl)azetidine-3-carboxamide] | 67
6 | CCOC(=O)c1cc(-c2ccc(NC(=O)C3CN(c4cccnn4)C3)cc2)n(-c2ccccc2)n1 [Example 913, ethyl 1-phenyl-5-[4-({[1-(pyridazin-3-yl)azetidin-3-yl]carbonyl}amino)phenyl]-1H-pyrazole-3-carboxylate] | 66.3
7 | O=C(Nc1ccc(C2CCN(C(=O)c3ccccc3F)CC2)nc1)C1CN(c2cccnn2)C1 [Example 914, N-{6-[1-(2-fluorobenzoyl)piperidin-4-yl]pyridin-3-yl}-1-(pyridazin-3-yl)azetidine-3-carboxamide] | 2.7

Other lines, results leading:

Row | IC50 [nM] | SMILES
8 | 6.45 | CC(=O)N1CCC(Cc2ccc(NC(=O)C3CN(c4cccnn4)C3)cc2)CC1 [Example 902, N-{4-[(1-acetylpiperidin-4-yl)methyl]phenyl}-1-(pyridazin-3-yl)azetidine-3-carboxamide]
9 | 0.618 | CC[C@H](C)C(=O)N1CCC(Cc2ccc(NC(=O)C3CN(c4cccnn4)C3)cc2)CC1 [Example 903, N-[4-({1-[(2S)-2-methylbutanoyl]piperidin-4-yl}methyl)phenyl]-1-(pyridazin-3-yl)azetidine-3-carboxamide]
10 | 0.879 | Cc1ccnnc1N1CC(C(=O)Nc2ccc(C3CCN(C(=O)c4ccccc4)CC3)cc2)C1 [Example 906, N-[4-(1-benzoylpiperidin-4-yl)phenyl]-1-(4-methylpyridazin-3-yl)azetidine-3-carboxamide]
11 | 6750 | O=C(N[C@H]1CCN(c2cccnn2)C1)c1ccc(C2CCN(C(=O)c3ccccc3F)CC2)o1 [Example 907, 5-[1-(2-fluorobenzoyl)piperidin-4-yl]-N-[(3S)-1-(pyridazin-3-yl)pyrrolidin-3-yl]furan-2-carboxamide]
12 | 6.51 | Nc1ncccc1C(=O)N1CCC(c2ccc(NC(=O)C3CN(c4cccnn4)C3)cc2)CC1 [Example 910, N-(4-{1-[(2-aminopyridin-3-yl)carbonyl]piperidin-4-yl}phenyl)-1-(pyridazin-3-yl)azetidine-3-carboxamide]
13 | > 10000 | Cn1nc(C(=O)O)cc1-c1ccc(NC(=O)C2CN(c3cccnn3)C2)cc1 [Example 911, 1-methyl-5-[4-({[1-(pyridazin-3-yl)azetidin-3-yl]carbonyl}amino)phenyl]-1H-pyrazole-3-carboxylic acid]
14 | 64.2 | CCOC(=O)c1cc(-c2ccc(NC(=O)C3CN(c4cccnn4)C3)cc2)n(C)n1 [Example 912, ethyl 1-methyl-5-[4-({[1-(pyridazin-3-yl)azetidin-3-yl]carbonyl}amino)phenyl]-1H-pyrazole-3-carboxylate]
